Source: PubChem BioAssay AID248 (DTP/NCI, 2004)
Several values for one entry are separate records, joined by “and”; a condition that tells them apart may be missing. Equal values may be shown once. Toxic doses and inconclusive results are not listed. Cut-off read from the data, not from the text of the source: active = T/C of 150% or more; inactive = T/C below 125%.

System: L1210 leukemia ip in BDF1 mice, survival T/C
Assay: NCI In Vivo Anticancer Drug Screen. Data for tumor model L1210 Leukemia (intraperitoneal) in B6D2F1 (BDF1) mice
Settings: endpoint: mean survival time, higher = longer survival
Summary of the method: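 Read-out is survival time, reported as the treated-group measurement over the vehicle-control measurement.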

[1] = dose: 100.0 mg/kg/injection, schedule: Q01DX001 (ip), vehicle: carboxymethylcellulose (CMC)

Measured: T/C

C1=C(COC(c2ccccc2)(c2ccccc2)c2ccccc2)CCCC1
inactive: [1] 87 % of control | dose: 400.0 mg/kg/injection, schedule: Q01DX001 (ip), vehicle: carboxymethylcellulose (CMC) 87 % of control

O=C(O)COc1cc(Cl)ccc1Cl
inactive: dose: 100.0 mg/kg/injection, schedule: Q04DX002 (ip), vehicle: Klucel (hydroxypropylcellulose) (HPC) 95 % of control | dose: 200.0 mg/kg/injection, schedule: Q04DX002 (ip), vehicle: Klucel (hydroxypropylcellulose) (HPC) 95 % of control | dose: 400.0 mg/kg/injection, schedule: Q04DX002 (ip), vehicle: Klucel (hydroxypropylcellulose) (HPC) 100 % of control

CC(C)(C)COC(=O)C(C)(C)C
inactive: dose: 100.0 mg/kg/injection, schedule: Q01DX001 (ip), vehicle: saline 117 % of control | dose: 200.0 mg/kg/injection, schedule: Q01DX001 (ip), vehicle: saline 112 % of control | dose: 400.0 mg/kg/injection, schedule: Q01DX001 (ip), vehicle: saline 102 % of control

O=S(=O)(Cc1ccc(Cl)cc1)c1ccccc1-n1cccc1
inactive: dose: 100.0 mg/kg/injection, schedule: Q04DX003 (ip), vehicle: Klucel (hydroxypropylcellulose) (HPC) 90 % of control | dose: 200.0 mg/kg/injection, schedule: Q04DX003 (ip), vehicle: Klucel (hydroxypropylcellulose) (HPC) 92 % of control | dose: 400.0 mg/kg/injection, schedule: Q04DX003 (ip), vehicle: Klucel (hydroxypropylcellulose) (HPC) 100 % of control

Brc1cccc(Br)n1
inactive: dose: 50.0 mg/kg/injection, schedule: Q01DX001 (ip), vehicle: other 101 % of control | dose: 100.0 mg/kg/injection, schedule: Q01DX001 (ip), vehicle: other 121 % of control | dose: 100.0 mg/kg/injection, schedule: Q04DX002 (ip), vehicle: saline with Tween-80 106 % of control | dose: 200.0 mg/kg/injection, schedule: Q01DX001 (ip), vehicle: other 97 % of control | dose: 200.0 mg/kg/injection, schedule: Q04DX002 (ip), vehicle: saline with Tween-80 93 % of control | dose: 400.0 mg/kg/injection, schedule: Q01DX001 (ip), vehicle: other 101 % of control | dose: 400.0 mg/kg/injection, schedule: Q04DX002 (ip), vehicle: saline with Tween-80 106 % of control

COc1cc(Cl)ccc1NC(=O)Oc1ccc(OCc2ccccc2)cc1
inactive: dose: 100.0 mg/kg/injection, schedule: Q01DX009 (ip), vehicle: Klucel (hydroxypropylcellulose) (HPC) 94 % of control | dose: 200.0 mg/kg/injection, schedule: Q01DX009 (ip), vehicle: Klucel (hydroxypropylcellulose) (HPC) 94 % of control | dose: 400.0 mg/kg/injection, schedule: Q01DX009 (ip), vehicle: Klucel (hydroxypropylcellulose) (HPC) 97 % of control

Nc1nc(SN=Nc2ccc(S(N)(=O)=O)cc2)c2[nH]cnc2n1
inactive: dose: 0.16 mg/kg/injection, schedule: Q01DX Z (ip), vehicle: other 110 % of control | dose: 1.5 mg/kg/injection, schedule: Q04DX003 (ip), vehicle: saline with Tween-80 111 % of control | dose: 20.0 mg/kg/injection, schedule: Q01DX Z (ip), vehicle: methylcellulose (MC) 124 % of control | dose: 68.0 mg/kg/injection, schedule: Q01DX Z (ip), vehicle: other 109 % of control | dose: 102.0 mg/kg/injection, schedule: Q01DX Z (ip), vehicle: other 102 % of control
active: dose: 2.0 mg/kg/injection, schedule: Q01DX Z (ip), vehicle: methylcellulose (MC) 165 % of control | dose: 3.0 mg/kg/injection, schedule: Q01DX Z (ip), vehicle: methylcellulose (MC) 154 % of control | dose: 5.0 mg/kg/injection, schedule: Q01DX Z (ip), vehicle: other 153 % of control | dose: 12.0 mg/kg/injection, schedule: Q04DX003 (ip), vehicle: saline with Tween-80 155 % of control | dose: 17.0 mg/kg/injection, schedule: Q04DX003 (ip), vehicle: saline with Tween-80 158 % of control and 159 % of control | dose: 25.0 mg/kg/injection, schedule: Q04DX003 (ip), vehicle: saline with Tween-80 151 % of control and 190 % of control | dose: 37.0 mg/kg/injection, schedule: Q04DX003 (ip), vehicle: saline with Tween-80 155 % of control and 164 % of control

N=c1sc2ccccc2n1CC(=O)O
inactive: dose: 25.0 mg/kg/injection, schedule: Q01DX001 (ip), vehicle: saline with Tween-80 92 % of control | dose: 50.0 mg/kg/injection, schedule: Q01DX001 (ip), vehicle: saline with Tween-80 96 % of control | dose: 100.0 mg/kg/injection, schedule: Q01DX001 (ip), vehicle: saline with Tween-80 94 % of control

CC(C)OC(C(=O)O)c1ccccc1 (centres undefined)
inactive: [1] 101 % of control | dose: 200.0 mg/kg/injection, schedule: Q01DX001 (ip), vehicle: carboxymethylcellulose (CMC) 101 % of control

O=[N+]([O-])C1(CO)COC(c2ccccc2)OC1 (centres undefined)
inactive: dose: 100.0 mg/kg/injection, schedule: Q01DX009 (ip), vehicle: water 91 % of control | dose: 100.0 mg/kg/injection, schedule: Q04DX003 (ip), vehicle: saline with Tween-80 111 % of control | dose: 200.0 mg/kg/injection, schedule: Q01DX009 (ip), vehicle: water 98 % of control | dose: 200.0 mg/kg/injection, schedule: Q04DX003 (ip), vehicle: saline with Tween-80 108 % of control | dose: 400.0 mg/kg/injection, schedule: Q01DX009 (ip), vehicle: water 92 % of control | dose: 400.0 mg/kg/injection, schedule: Q04DX003 (ip), vehicle: saline with Tween-80 95 % of control
